One data set addresses T1, topoisomerase I (Topo I) (Homo sapiens, UniProt P11387).
T1 sequence (P11387 1-765): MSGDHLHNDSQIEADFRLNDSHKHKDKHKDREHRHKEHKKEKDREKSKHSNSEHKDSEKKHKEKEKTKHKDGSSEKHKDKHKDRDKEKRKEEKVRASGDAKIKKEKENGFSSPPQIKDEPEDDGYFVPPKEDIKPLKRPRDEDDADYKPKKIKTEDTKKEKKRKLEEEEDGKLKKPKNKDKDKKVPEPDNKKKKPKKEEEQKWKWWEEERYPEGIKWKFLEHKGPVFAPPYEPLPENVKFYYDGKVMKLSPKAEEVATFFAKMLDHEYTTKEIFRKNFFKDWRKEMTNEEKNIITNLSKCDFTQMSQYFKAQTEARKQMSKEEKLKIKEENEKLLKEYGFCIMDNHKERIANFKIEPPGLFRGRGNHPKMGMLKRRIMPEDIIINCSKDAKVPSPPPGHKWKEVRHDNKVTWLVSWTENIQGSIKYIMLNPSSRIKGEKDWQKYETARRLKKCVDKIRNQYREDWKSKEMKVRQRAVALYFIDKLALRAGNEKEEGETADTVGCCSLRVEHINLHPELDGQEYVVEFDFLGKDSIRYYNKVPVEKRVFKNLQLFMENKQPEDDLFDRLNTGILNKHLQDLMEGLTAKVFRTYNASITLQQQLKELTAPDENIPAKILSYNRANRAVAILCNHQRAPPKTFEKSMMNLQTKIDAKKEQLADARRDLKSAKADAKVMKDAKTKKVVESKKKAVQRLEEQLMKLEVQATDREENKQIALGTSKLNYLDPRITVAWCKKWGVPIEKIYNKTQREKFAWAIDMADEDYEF
Description: Topo I enzyme-inhibitory activity by agarose-gel electrophoresis (plasmid relaxation). The format is biochemical. In outline: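 Supercoiled pNO1 plasmid (0.5 µg) was relaxed by Topo I (0.75 U) in 20 mM Tris-HCl pH 7.5, 200 mM NaCl, 0.25 mM EDTA, 5 % glycerol, 5 % DMSO final, for 30 min at 37 °C. Supercoiled band intensity on agarose gel was normalized to no-enzyme and vehicle controls. IC50 from a four-parameter logistic fit.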

Data set [1] can be described thus: Pharmacokinetic study in mice, plasma concentrations by LC-MS/MS. Particulars: mouse, in vivo. As for the experimental part: Test Example 3. Pharmacokinetic Study for Determining Compound Concentrations in Mice by LC-MS/MS
Principle: LC-MS/MS is used to quantify the plasma concentrations of the test article at successive time points, generating an in-vivo pharmacokinetic profile.
Procedure: The test compound was dissolved in DMSO to prepare a 10 mg/mL stock solution. This stock was further diluted to 1 mg/mL with a vehicle consisting of 10 % DMSO + 10 % Solutol HS-15 + 80 % saline. Male CD-1 mice (JH Laboratory Animal Co., LTD) were employed; six animals were assigned per compound group. […] Serial blood samples (~50 µL whole blood, K2EDTA anticoagulant) were collected at 0.083, 0.25, 0.5, 1, 2, 4, 8 and 24 h (three mice per time point in a crossover design). Blood was centrifuged at 6 000 g for 5 min at 4 °C; plasma was harvested and stored at -70 °C until analysis. Plasma drug concentrations were determined by LC-MS/MS.
Calibration Curve and QC Preparation: Working solutions were prepared by dilution with MeOH:H2O (1:1). For each calibration or QC level, 3 µL of working solution was spiked into 57 µL of blank mouse plasma.
Sample Processing: To 30 µL of plasma was added 200 µL of methanol containing the internal standard (propranolol, 40 ng mL^-1). After vortex-mixing for 1 min, the mixture was centrifuged at 12 000 rpm for 10 min. A 100 µL aliquot of the supernatant was transferred to a clean plate for injection.
Pharmacokinetic Analysis: Concentration-time data were analyzed with WinNonlin 8.2 using a non-compartmental approach to derive PK parameters including Cmax, Tmax, AUC and terminal elimination half-life (t1/2). AUC was calculated by the linear-up/log-down trapezoidal method. Table 3. Pk parameters of compounds

Where two headings read alike, the source gives them in different places. Some results are limits rather than exact numbers.

Usually IC50 stands for the concentration that inhibits the measured activity by half. As usually defined, the AUC(0-t) is the area under the concentration-time curve up to a stated or last time point. Read a low AUC(0-t) as low exposure. For orientation: Cmax means the highest concentration seen after dosing. By clearance is commonly meant the volume of plasma or blood freed of the substance per unit of time. Low values mean inefficient removal, high ones efficient removal. One may read the half-life as how long it takes for the measured level to halve. Read a high half-life as slow loss. The term Tmax denotes the time at which the peak concentration occurs. As usually defined, the bioavailability is dose-corrected exposure relative to a reference, in per cent. Higher therefore signals much systemic uptake.

In turn, `CC[C@@]1(O)C(=O)OCc2c1cc1n(c2=O)Cc2c-1c(=O)c1cc(F)cc(C)c1n2C` [Example 2, (S)-4-ethyl-8-fluoro-4-hydroxy-10,11-dimethyl-1,12-dihydro-14H-pyrano[3,4:6,7]indolizino[2,1-b]quinoline-3,6,14(4H,11H)-trione] showed an IC50 on topoisomerase I (Topo I) of under 200 nM. In data set [1] (iv, 2 mg/kg), this molecule showed an exposure AUC(0-t) at 24 h of 323 ng·h/mL, a Cmax of 604 ng/mL, a clearance of 110 mL/min/kg and a half-life of 69.6 min. In data set [1] (po, 20 mg/kg), the AUC(0-t) at 24 h worked out at 911 ng·h/mL, the peak level (Cmax) was 956 ng/mL, the time to peak (Tmax) was determined as 25.2 min and the bioavailability was 28.5%. Also, in data set [1] (po, 20 mg/kg), the half-life is 135 min.
As to `CC[C@@]1(O)C(=O)OCc2c1cc1n(c2=O)Cc2c-1c(=O)c1cc(F)ccc1n2CCN(C)C1CCCC1` [Example 117], the half-maximal inhibitory concentration (IC50) at topoisomerase I (Topo I) (read-out: inhibition of topoisomerase I (Topo I) enzymatic activity, IC50, 0.75 U Topo I, pNO1 plasmid, 37 °C, 30 min, compounds listed by group (Group A / Group B)) lay within 200 to 500 nM. In data set [1] (iv, 1 mg/kg), this molecule gave an AUC(0-t) at 24 h of 38.7 ng·h/mL, a Cmax of 107 ng/mL, a clearance of 439 mL/min/kg and a half-life of 14.1 min.

(Values after patent publication EP4778929A1, “NOVEL TYPE I TOPOISOMERASE INHIBITOR, AND PREPARATION METHOD THEREFOR AND USE THEREOF” (priority 2023, dated 2025).)
